Reference: patent US20220339257A1, “METHODS TO INCREASE THE SENSITIVITY AND REVERSING THE RESISTANCE TO DRUGS” (Biomarker Strategies, LLC, priority 2019, published 2022)

Columns and labels:
Test in all cases: WST-8 cell viability assay
Type in all cases: cell-based
A498 = settings: in combination with cetuximab, 72 hours
Experimental: (§1) Day 1: cells were harvested cells from flask (4 mL accutase for T175 for 3-5 minutes), and spin down for 5 mins at 1200 rpm. The supernatant was poured off, and the pellet gently resuspended in 1 mL media. Countess counts were performed, and the cells were diluted in media (10% FBS). With multi-channel pipette, 2500 cells were seeded in 100 uL of media (10% FBS) in each well of 96 well plate. The cells were let to adhere and grow for 24 hours. Day 2: serial drug dilutions of MTAs+/−EMs at 5× of concentrations (as done above) were performed in media (10% FBS). 20 uL of media form each well of the 96 well plate (80 uL media left in wells) was removed, and 20 uL of appropriate 5× drug dilutions was added to each respective well (for a 1× conc). The cells were incubated with drug for 72 hours in 37C incubator. Day 5: 10 uL of WST-8 reagent was added to each well of the 96 well plate and mixed gently. the plates were incubated up to 4 hours at 37C in dark, and absorbance readings were taken at […] and 600 nm wavelengths at 1, 2, 3 and 4h, until control absorbance levels were 1.5-2.0).
(§2) WST-8 Assay: MTA and EM effects on cell viability were measured by Cell Counting Kit8 (WST-8) colorimetric assay using water-soluble tetrazolium salt WST-8 reagent (Vita Scientific Cat. #DBOC00128). For the assay, cells were seeded in 96-well plates at 2,500 cells per well, in 100 μL of 10% FBS-containing media. After 24 hours, a 1 nM to 10 μM range of MTA and/or 1 ng/mL to 1 mg/mL range of EM doses was added and incubated for 72 hours. After treatment, a 10% volume of WST-8 reagent was added to each well and cells were incubated at 37° C. for up to 4 hours. Solution absorbance was measured at wavelengths of 450 nm and 600 nm at 1-, 2-, 3-, and 4-hour's incubation. Percentage viability of drug-treated cells was calculated relative to untreated control cells. Results were confirmed by three independent experiments.
(§3) For studying the effects of various molecularly targeted agents (MTAs) and enhancer molecules (EMs) alone as well as in combination: HCC827, PC-9, A427, Calu-6, H2228, H358, H1299, H460, H292, H1838, H2170, and H226 (non-small cell lung cancer; NSCLC); and SK-MES-1 […], CAL27, OE21, KYSE-70, A-253, BICR-16, PE/CA-PJ15 and Ca9-22 (head and neck squamous cell carcinoma; HNSCC); SK-MEL-2, SK-MEL-28, RPMI-7951 and A7 (melanoma); HTB-38 and HCT116 (colorectal cancer; CRC); BxPC-3 and HPAF-II (pancreatic cancer); HEPG2 (hepatocellular carcinoma; HCC); A498 (renal cell carcinoma; RCC) cells were used. Other cell lines, including those from other cancer types, or cells collected from more complex sample types such as xenografts and clinical samples can be used. Ultimately, these combinations can be utilized in various clinical and pre-clinical samples and studies. Using the WST-8 cell viability assay, a MTA+EM-induced anti-cancer/anti-growth activity in multiple cell lines was discovered (FIGS. 8-15). Other viability assays, for example, MTT, HoPI staining, dye exclusion (e.g. trypan blue), can be used readily. […] The cut-off value for classifying a “strong anti-cancer/anti-growth enhancement” was a response resulting in >70% reduction in cell survival compared to untreated control cells (100%), while showing greater reduction compared to both MTA and EM alone.

BICR-16 = settings: in combination with IFN-γ, 72 hours
Experimental: as §1, §2, §3

Calu-6 = settings: in combination with IFN-γ, 72 hours
Experimental: as §1, §2, §3

HTB-38 = settings: in combination with IFN-γ, 72 hours
Experimental: as §1, §2, §3

OE21 = settings: in combination with GSK-458, 72 hours
Experimental: as §1, §2, §3

PC-9 = settings: in combination with trametinib; PC-9 (EGFR E746_A750del); 72 hours
Experimental: as §1, §2, §3

RPMI-7951 = system: RPMI-7951
Experimental: as §1, §2, §3

erlotinib-resistant PC-9 = system: erlotinib-resistant PC-9
Experimental: as §1, §2, §3

Ca9-22 = system: Ca9-22
Experimental: as §1, §2, §3

[1] = in combination with GSK-458, 72 hours
[2] = in combination with trametinib, 72 hours

**Q.** Which “anti-cancer/growth enhancement (WST-8 cell viability)” value (shortened to “anti-cancer/growth enhancement”) (A498) does the source give for tumor necrosis factor-alpha [EM2] here?
**A.** moderate-to-strong anti-cancer/growth enhancement

**Q.** And the “anti-cancer/growth enhancement” value (BICR-16)?
**A.** moderate-to-strong anti-cancer/growth enhancement

**Q.** And the “anti-cancer/growth enhancement” value (Calu-6)?
**A.** moderate-to-strong anti-cancer/growth enhancement

**Q.** What about the “anti-cancer/growth enhancement” value (HTB-38) of the same molecule?
**A.** moderate-to-strong anti-cancer/growth enhancement

**Q.** What about the “anti-cancer/growth enhancement” value (OE21) of the same molecule?
**A.** moderate-to-strong anti-cancer/growth enhancement

**Q.** What about the “anti-cancer/growth enhancement” value (PC-9) of the same molecule?
**A.** moderate-to-strong anti-cancer/growth enhancement

**Q.** What about the “anti-cancer/growth enhancement” value (RPMI-7951; [1]) of the same molecule?
**A.** moderate-to-strong anti-cancer/growth enhancement

**Q.** What about the “anti-cancer/growth enhancement” value (RPMI-7951; in combination with dabrafenib, 72 hours) of the same molecule?
**A.** moderate-to-strong anti-cancer/growth enhancement

**Q.** And the “anti-cancer/growth enhancement” value (erlotinib-resistant PC-9; [1])?
**A.** moderate-to-strong anti-cancer/growth enhancement

**Q.** And the “anti-cancer/growth enhancement” value (erlotinib-resistant PC-9; [2])?
**A.** moderate-to-strong anti-cancer/growth enhancement

B1: interferon-alpha-1 (protein, UniProt P01562 24-189, looked up)
Interferon alpha-1/13: CDLPETHSLDNRRTLMLLAQMSRISPSSCLMDRHDFGFPQEEFDGNQFQKAPAISVLHELIQQIFNLFTTKDSSAAWDEDLLDKFCTELYQQLNDLEACVMQEERVGETPLMNADSILAVKKYFRRITLYLTEKKYSPCAWEVVRAEIMRSLSLSTNLQERLRRKE
notes: enhancer molecule, cytokine purchased from Sigma
**Q.** For B1, which “anti-cancer/growth enhancement” value (Ca9-22; [1]) is on record?
**A.** anti-cancer/growth enhancement

**Q.** What about the “anti-cancer/growth enhancement” value (Ca9-22; in combination with GSK-795, 72 hours) of the same molecule?
**A.** anti-cancer/growth enhancement

**Q.** And the “anti-cancer/growth enhancement” value (Ca9-22; in combination with everolimus, 72 hours)?
**A.** anti-cancer/growth enhancement

**Q.** What about the “anti-cancer/growth enhancement” value (Ca9-22; in combination with metformin, 72 hours) of the same molecule?
**A.** anti-cancer/growth enhancement

**Q.** What about the “anti-cancer/growth enhancement” value (Ca9-22; in combination with osimertinib, 72 hours) of the same molecule?
**A.** anti-cancer/growth enhancement

**Q.** What about the “anti-cancer/growth enhancement” value (Ca9-22; [2]) of the same molecule?
**A.** anti-cancer/growth enhancement
